The values that follow come from patent US20220211877A1, “COMPOUND FOR INTRAOPERATIVE MOLECULAR BIOIMAGING, METHOD OF MAKING THE SAME, USE THEREOF IN INTRAOPERATIVE MOLECULAR BIOIMAGING AND SURGICAL METHOD COMPRISING INTRAOPERATIVE MOLECULAR BIOIMAGING” (Klinikum rechts der lsar der Techischen Universität München, priority 2018, published 2022).

In data set [1] the target is αvβ5 (Homo sapiens, UniProt P06756+P18084). Briefly: solid-phase integrin binding assay. Conditions: n = 2. How it is done: (§1) The integrin binding affinity and selectivity profile of the compounds was determined by a solid-phase binding assay as previously described.^48
Data set [2] concerns the target αIIbβ3 (Homo sapiens, UniProt P05106+P08514). Briefly: solid-phase integrin binding assay. The following applies: n = 2. Here is the method: as §1
A short description of data set [3]: biodistribution and nonspecific binding in control animals (control TX, sham TX, unoperated). The following applies: for renal clearance: 6 h after injection. How it is done:
Similarly, healthy oral epithelium was transplanted for control experiments.
Control experiments were performed with sham operations and transplantation with healthy control tissue, which were imaged with FRX110 and FRX109 as the control tracer.
The specificity of the binding was investigated in the in vivo model with the control tracer FRX109. FRX109 was visualized in mice with a sham graft (sham TX) of human carcinoma tissue (no tissue was transplanted).

Data set [4] concerns the target αvβ3 (Homo sapiens, UniProt P05106+P06756). Briefly: solid-phase integrin binding assay. Conditions: n = 2.
In data set [5] the target is α5β1 (Homo sapiens, UniProt P05556+P08648). Put plainly: solid-phase integrin binding assay. The following applies: n = 2.
Data set [6] deals with αvβ8 (Homo sapiens, UniProt P06756+P26012). Put plainly: solid-phase integrin binding assay. Conditions: n = 2.
Data set [7] addresses αvβ6 (Homo sapiens, UniProt P06756+P18564). Put plainly: solid-phase integrin binding assay. The following applies: n = 2.
Data set [8] in a line: biodistribution by fluorescence intensity in HNSCC PDX mice. How it is done: Relying on fluorescence intensity measurements, the distribution and accumulation of FRX103 in the organism was determined over the time period shown.
The test system of data set [9] is invasive HNSCC tissue. Put plainly: molecular bioimaging in HNSCC PDX mouse model. It counts as in vivo, NOD/SCID mice. Here is the method:
An orthotopic HNSCC PDX (head and neck squamous cell carcinoma patient derived xenotransplant) mouse model was developed that allows the analysis of invasive, orthotropic human carcinoma tissue. HNSCC tissue samples were transplanted into the neck area of NOD/SCID mice. This provides epithelial derived carcinoma tissue in a mesenchymal tissue context to mimic the epithelial-mesenchymal interface between invasive carcinoma tissue and stroma. […]
Bioimgaing was performed relying on equipment described in ^42 using a 750 nm CW laser diode (BWF2-750-0, B & W Tek, Newark, Del., USA) with a maximum power of 300 mW was used to excite the fluorophores. […] The laser power was measured at a working distance of 15 cm at 85 mW/cm 2, which is lower than the maximum permissible exposure according to the standard of the American National Standards Institute (ANSI). A short-pass filter (E700SP, Chroma Technology, Rockingham, Vt., USA) was used to eliminate component of the field illumination NIRF signal to preclude interference between the fluorescence detection field and the field illumination light path (F1). […]
The measurements of the average fluorescence intensity/pixels were made in two regions of interests (ROIs). […]
The quotient ROI1/ROI2 of the average fluorescence intensity/pixel is given as tumor tissue to background ratio (TBR). […]

Data set [10] deals with OVMZ6 cells. Put plainly: cell binding experiment, fluorescence microscopy. The format is cell-based, human. The following applies: fixed OVMZ6 cells (low αvβ6, high αvβ3), 10 μM. The source says:
(§2) Human OSCC cell lines HN was purchased from the German Collection of Microorganisms and Cell Cultures, Braunschweig, Germany (DSMZ no. ACC 417 (HN) The HN cell line was established from a cervical lymph node metastasis of an invasive squamous cell carcinoma of the soft palate. The metastasis occurred 7 years after treatment of the primary tumour and metastasized to the lung and brain. ^49 As control cells, we used the human ovarian cancer cell line OVMZ6 with low integrin avb6 and high integrin αvβ3 expression. ^50 All cells were cultivated in Dulbecco's Modified Eagle's Medium (DMEM) (Sigma-Aldrich, St. Louis, Mo., USA), supplemented with 10% (v/v) fetal calf serum (FCS) (Gibco, Lifelechnologies™, Carlsbad, Calif., USA).
(§3) HN and OVMZ6 cells were cultivated for 24 h on fibronectin-coated microchamber slides at a density of 25×10^3/well, thereafter fixed in 2% (w/v) PFA for 15 min at r.t. and washed in PBS. The Cy5.5-conjugated compound OM_1231, dissolved in PBS, 5% (v/v) dimethyl sulfoxide (DMSO), was applied at a final concentration of 10 μM for 1 h at r.t., followed by 3 washes in PBS. […] As control peptide served the non-binding cycl(R^betaADfK) labelled via lysine side-chain NH2 group with Cy5.5 fluorescent dye (code OM_1224). After the incubation period, cells were washed 6 times in PBS and slides mounted. Fluorescence signal intensity was detected by the microscope Zeiss LSM 700 (Zeiss) as described above. Images were merged by applying for the fluorescence image the LUT “blue to red”: low intensity: blue; medium intensity: green; and high intensity: red.

Data set [11] relates to HN cells. Put plainly: cell binding experiment, fluorescence microscopy. The format is cell-based, human. The following applies: for fluorescence signal intensity on cells: fixed HN cells, 10 μM, 1 h at r.t.
Text: as §2, §3

Setting [12] is: 0-24 h post injectionem, FIG. 5b.

Where a SMILES comes first, the peptide text is derived from it. Side-chain parts run from the residue outwards. [ ]: non-standard residue; d: D form. The star is where a group is joined. IRDye800CW = CC1(C)C(/C=C/C2=C(Oc3ccc(S(=O)(=O)O)cc3)C(=C/C=C3/N(CCCCS(=O)(=O)O)c4ccc(S(=O)(=O)O)cc4C3(C)C)/CCC2)=[N+](CCCCCC(=O)*)c2ccc(S(=O)(=O)[O-])cc21; NMeK = CN[C@@H](CCCCN)C(=O)O; Ahx = NCCCCCC(=O)O

αvβ6, sequence (P06756 31-889 limits assumed): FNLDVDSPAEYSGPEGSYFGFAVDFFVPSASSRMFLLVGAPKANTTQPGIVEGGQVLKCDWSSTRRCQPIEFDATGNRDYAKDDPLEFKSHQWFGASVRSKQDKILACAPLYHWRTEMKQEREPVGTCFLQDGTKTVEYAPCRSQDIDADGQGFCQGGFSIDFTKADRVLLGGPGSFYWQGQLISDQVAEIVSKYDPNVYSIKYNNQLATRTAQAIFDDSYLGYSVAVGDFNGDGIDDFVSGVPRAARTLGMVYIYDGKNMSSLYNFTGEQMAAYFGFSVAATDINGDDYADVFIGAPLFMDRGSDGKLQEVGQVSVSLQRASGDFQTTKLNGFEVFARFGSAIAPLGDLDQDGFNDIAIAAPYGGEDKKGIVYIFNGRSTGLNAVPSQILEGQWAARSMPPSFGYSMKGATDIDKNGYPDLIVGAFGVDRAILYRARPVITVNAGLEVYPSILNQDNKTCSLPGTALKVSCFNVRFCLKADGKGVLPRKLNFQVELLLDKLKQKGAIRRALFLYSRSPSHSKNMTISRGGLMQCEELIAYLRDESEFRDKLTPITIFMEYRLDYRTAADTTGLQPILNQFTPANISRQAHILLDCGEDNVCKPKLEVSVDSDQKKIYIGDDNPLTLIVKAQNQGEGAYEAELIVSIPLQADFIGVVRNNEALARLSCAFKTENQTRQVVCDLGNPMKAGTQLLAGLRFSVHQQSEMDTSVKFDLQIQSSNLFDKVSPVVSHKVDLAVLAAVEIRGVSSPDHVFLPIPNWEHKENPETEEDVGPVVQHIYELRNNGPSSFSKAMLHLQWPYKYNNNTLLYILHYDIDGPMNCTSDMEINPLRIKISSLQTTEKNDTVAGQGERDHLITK
αvβ6, sequence (P06756 891-992 partner limits assumed): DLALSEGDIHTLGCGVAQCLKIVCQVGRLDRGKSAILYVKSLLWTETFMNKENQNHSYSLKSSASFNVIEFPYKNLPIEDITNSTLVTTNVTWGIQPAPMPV
αvβ6, sequence (P18564 22-707 limits assumed): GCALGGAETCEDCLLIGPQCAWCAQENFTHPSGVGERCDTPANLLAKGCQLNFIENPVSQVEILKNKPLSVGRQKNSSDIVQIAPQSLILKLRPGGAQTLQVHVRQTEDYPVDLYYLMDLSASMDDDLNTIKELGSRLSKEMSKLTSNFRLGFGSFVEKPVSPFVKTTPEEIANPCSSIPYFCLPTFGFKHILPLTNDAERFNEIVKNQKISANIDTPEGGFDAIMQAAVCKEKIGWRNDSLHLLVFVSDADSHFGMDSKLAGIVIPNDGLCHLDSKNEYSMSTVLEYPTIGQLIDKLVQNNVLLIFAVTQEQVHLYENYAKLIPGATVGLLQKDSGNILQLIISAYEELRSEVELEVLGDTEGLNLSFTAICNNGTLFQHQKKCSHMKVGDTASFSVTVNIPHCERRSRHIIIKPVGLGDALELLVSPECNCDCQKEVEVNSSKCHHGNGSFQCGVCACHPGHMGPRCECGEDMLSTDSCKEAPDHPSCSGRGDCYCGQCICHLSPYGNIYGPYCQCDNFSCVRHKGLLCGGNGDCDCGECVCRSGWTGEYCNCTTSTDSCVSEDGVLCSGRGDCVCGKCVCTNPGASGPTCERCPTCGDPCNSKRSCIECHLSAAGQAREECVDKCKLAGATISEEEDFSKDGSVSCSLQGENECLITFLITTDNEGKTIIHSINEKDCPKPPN
αvβ8, sequence (P06756 31-889 limits assumed): as the sequence (P06756 31-889 limits assumed) above
αvβ8, sequence (P06756 891-992 partner limits assumed): as the sequence (P06756 891-992 partner limits assumed) above
αvβ8, sequence (P26012 43-684 limits assumed): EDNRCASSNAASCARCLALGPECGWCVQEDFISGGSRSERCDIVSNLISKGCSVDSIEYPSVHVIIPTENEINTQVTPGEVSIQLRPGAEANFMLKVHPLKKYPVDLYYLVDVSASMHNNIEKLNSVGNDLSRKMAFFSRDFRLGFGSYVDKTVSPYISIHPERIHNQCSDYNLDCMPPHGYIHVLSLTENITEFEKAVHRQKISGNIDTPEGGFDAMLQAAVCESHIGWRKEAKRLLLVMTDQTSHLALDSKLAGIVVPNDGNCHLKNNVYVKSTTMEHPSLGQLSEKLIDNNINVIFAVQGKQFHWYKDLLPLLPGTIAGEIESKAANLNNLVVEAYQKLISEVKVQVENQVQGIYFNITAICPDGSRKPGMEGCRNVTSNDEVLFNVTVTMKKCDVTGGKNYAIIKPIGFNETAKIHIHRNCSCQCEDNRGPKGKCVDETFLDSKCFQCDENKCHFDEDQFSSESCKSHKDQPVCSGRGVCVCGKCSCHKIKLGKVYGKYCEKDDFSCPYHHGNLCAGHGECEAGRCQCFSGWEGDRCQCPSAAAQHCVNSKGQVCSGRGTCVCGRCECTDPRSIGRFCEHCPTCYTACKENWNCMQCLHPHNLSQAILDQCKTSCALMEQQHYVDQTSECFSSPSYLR
α5β1, sequence (P08648 42-894 limits assumed): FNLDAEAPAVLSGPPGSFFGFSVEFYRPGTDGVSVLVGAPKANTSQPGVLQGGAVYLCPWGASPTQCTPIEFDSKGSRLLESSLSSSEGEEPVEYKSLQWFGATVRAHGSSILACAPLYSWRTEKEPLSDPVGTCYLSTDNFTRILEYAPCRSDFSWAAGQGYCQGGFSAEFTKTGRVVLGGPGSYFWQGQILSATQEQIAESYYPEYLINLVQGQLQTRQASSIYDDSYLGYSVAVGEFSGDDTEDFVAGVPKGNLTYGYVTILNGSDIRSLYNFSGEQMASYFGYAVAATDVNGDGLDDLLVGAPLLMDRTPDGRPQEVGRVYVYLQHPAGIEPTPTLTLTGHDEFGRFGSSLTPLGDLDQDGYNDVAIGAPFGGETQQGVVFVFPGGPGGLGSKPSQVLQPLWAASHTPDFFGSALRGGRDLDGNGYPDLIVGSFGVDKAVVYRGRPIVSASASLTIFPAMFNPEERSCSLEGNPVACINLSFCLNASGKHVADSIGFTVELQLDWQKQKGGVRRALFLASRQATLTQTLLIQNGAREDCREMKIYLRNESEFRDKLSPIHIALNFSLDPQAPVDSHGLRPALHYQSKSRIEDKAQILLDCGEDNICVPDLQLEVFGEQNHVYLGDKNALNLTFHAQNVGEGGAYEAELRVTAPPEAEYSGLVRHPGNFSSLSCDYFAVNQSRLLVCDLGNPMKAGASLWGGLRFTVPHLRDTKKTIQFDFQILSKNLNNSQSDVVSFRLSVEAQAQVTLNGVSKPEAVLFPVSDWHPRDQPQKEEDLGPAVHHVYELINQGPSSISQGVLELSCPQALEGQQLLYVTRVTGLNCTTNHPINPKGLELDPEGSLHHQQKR
α5β1, sequence (P08648 895-995 partner limits assumed): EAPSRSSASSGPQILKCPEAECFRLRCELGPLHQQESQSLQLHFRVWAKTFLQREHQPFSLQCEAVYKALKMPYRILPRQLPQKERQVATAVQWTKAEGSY
α5β1, sequence (P05556 21-728 limits assumed): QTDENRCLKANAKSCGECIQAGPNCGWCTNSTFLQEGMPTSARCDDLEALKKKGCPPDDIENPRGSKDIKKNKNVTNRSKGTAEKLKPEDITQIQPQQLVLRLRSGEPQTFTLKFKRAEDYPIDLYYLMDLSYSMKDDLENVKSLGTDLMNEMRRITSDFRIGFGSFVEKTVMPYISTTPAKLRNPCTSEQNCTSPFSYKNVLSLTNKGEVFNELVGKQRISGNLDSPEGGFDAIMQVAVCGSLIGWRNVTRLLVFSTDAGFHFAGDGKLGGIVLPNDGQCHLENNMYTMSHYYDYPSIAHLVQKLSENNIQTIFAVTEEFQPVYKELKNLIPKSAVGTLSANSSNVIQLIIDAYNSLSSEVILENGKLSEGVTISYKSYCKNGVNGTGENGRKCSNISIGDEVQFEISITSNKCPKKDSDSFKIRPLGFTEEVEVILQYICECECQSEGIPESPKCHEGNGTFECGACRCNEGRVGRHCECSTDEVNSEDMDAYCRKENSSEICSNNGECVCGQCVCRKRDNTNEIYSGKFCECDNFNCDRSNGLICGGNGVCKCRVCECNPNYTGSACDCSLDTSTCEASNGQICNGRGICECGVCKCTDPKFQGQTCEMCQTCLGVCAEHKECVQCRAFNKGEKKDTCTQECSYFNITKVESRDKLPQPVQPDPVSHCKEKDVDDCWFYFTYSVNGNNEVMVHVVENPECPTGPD
αvβ3, sequence (P06756 31-889 limits assumed): as the sequence (P06756 31-889 limits assumed) above
αvβ3, sequence (P06756 891-1048 partner limits assumed): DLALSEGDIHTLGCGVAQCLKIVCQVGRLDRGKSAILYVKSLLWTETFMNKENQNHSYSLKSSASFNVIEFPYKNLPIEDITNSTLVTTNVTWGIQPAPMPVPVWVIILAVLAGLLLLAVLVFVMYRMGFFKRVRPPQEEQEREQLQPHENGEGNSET
αvβ3, sequence (P05106 27-788): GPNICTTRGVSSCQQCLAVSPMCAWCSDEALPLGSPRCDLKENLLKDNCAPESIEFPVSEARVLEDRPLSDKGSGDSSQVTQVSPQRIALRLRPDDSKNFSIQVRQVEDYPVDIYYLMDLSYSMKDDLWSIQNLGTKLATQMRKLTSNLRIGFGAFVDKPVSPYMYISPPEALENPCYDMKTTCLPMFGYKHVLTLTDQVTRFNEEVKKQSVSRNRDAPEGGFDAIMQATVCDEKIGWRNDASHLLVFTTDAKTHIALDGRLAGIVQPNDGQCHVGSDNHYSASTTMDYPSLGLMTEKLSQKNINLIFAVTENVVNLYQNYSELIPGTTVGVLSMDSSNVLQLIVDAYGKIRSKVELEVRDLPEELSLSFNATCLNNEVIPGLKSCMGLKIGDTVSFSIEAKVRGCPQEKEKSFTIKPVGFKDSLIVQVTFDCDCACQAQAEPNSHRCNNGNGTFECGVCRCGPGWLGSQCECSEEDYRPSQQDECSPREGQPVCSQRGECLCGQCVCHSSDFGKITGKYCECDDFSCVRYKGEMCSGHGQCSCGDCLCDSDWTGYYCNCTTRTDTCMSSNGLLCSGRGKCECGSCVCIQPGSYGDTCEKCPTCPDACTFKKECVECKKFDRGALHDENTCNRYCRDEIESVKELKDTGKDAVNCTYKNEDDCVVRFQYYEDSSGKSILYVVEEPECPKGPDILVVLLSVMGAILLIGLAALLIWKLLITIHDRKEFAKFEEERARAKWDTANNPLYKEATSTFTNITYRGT

Take `CC(C)C[C@@H]1NC(=O)[C@H](CC(=O)O)NC(=O)[C@H](C)NC(=O)[C@H](CCCNC(=N)N)NC(=O)[C@H](Cc2ccccc2)NC(=O)[C@H](CCCCNC(=O)CCCCCNC(=O)CCCCC[N+]2=C(/C=C/C3=C(Oc4ccc(S(=O)(=O)O)cc4)C(=C/C=C4/N(CCCCS(=O)(=O)O)c5ccc(S(=O)(=O)O)cc5C4(C)C)/CCC3)C(C)(C)c3cc(S(=O)(=O)[O-])ccc32)N(C)C(=O)[C@H]2CCCN2C(=O)[C@H](Cc2ccccc2)NC(=O)[C@H](C)NC1=O` [FRX109, cyc(FRADLAFp(NMe)K(Ahx-IRDye ® 800CW))] (cyclo(FRADLAF[dP][NMeK]([Ahx-IRDye800CW]))): the IC50 in [1] is above 10 µM; in data set [2] it was above 1 µM; in data set [4], above 10 µM; in data set [5], above 1 µM; in data set [6] it was above 4 µM; in data set [7] it was 0.122 ± 0.012 µM. The renal clearance result in data set [3] (FIG. 5c) is given as “good renal clearance”.

`CC(C)C[C@@H]1NC(=O)[C@H](CC(=O)O)NC(=O)CNC(=O)[C@H](CCCNC(=N)N)NC(=O)[C@H](Cc2ccccc2)NC(=O)[C@H](CCCCNC(=O)CCCCCNC(=O)CCCCC[N+]2=C(/C=C/C3=CC(=C/C=C4/N(C)c5ccc6ccccc6c5C4(C)C)/CCC3)C(C)(C)c3c2ccc2ccccc32)N(C)C(=O)[C@H]2CCCN2C(=O)[C@H](Cc2ccccc2)NC(=O)[C@H](C)NC1=O` [FRX103, cyc(FRGDLAFp(NMe)K(Ahx-Cy7.5))]: the “time p.i. of best ratio between specific signal and background signal” value in data set [8] (i.v., HNSCC PDX mice) turned out to be 24 h. For the same compound, the “accumulation in the area of carcinoma tissue” value in data set [8] (i.v., up to 24 h p.i., FIG. 5a) was “constant accumulation”. Moreover, the “elimination after 24 h” value in data set [8] (mouse, in vivo, iv) is listed as “does not show any elimination”. Besides, the “nonspecific accumulation in the area of transplantation” value in [3] (control TX (healthy epithelial grafting)) is listed as “no nonspecific accumulation”. In data set [3] (mouse, in vivo), the “signal in liver and pancreas” value was “persistent signal”.

With `CC(C)C[C@@H]1NC(=O)[C@H](CC(=O)O)NC(=O)CNC(=O)[C@H](CCCNC(=N)N)NC(=O)[C@H](Cc2ccccc2)NC(=O)[C@H](CCCCNC(=O)CCCCCNC(=O)CCCCC[N+]2=C(/C=C/C3=C(Oc4ccc(S(=O)(=O)O)cc4)C(=C/C=C4/N(CCCCS(=O)(=O)O)c5ccc(S(=O)(=O)O)cc5C4(C)C)/CCC3)C(C)(C)c3cc(S(=O)(=O)[O-])ccc32)N(C)C(=O)[C@H]2CCCN2C(=O)[C@H](Cc2ccccc2)NC(=O)[C@H](C)NC1=O` [FRX110, cyc(FRGDLAFp(NMe)K(Ahx-IRDye ® 800CW))], the 50% inhibitory concentration (IC50) was above 10 µM in [1]; 0.408 ± 0.061 µM in data set [4]; 0.037 ± 0.006 µM in [5]; 0.129 ± 0.036 µM in data set [6]; 0.0022 ± 0.0002 µM in data set [7]. The same compound came in with a TBR in data set [8] (setting [12]) of 1.0. Besides, the “unspecific accumulation or binding” value in data set [8] (setting [12]) is “does not reveal unspecific accumulation or binding”. Also, in [8] (i.v.), the “time to elimination of unbound compound via the renal system” value was at most 24 h. Further, the renal clearance entry in data set [3] (FIG. 5c) was “good renal clearance”. Also, the “tissue to background (TBR) ratio” value is on record as “low” in [3] (control animals, FIG. 5c) and “high” in data set [9] (5th week p. TX, i.v. tail vein, FIG. 4a). Moreover, in [3] (control animals, FIG. 5c), the unspecific tracer enhancement entry is recorded as “without unspecific tracer enhancement”. The “binding to invasive growing carcinoma xenotransplants” value in data set [9] (1st to 12th week p. TX) is “specific binding”.

In the case of `CC(C)C[C@@H]1NC(=O)[C@H](CC(=O)O)NC(=O)CNC(=O)[C@H](CCCNC(=N)N)NC(=O)[C@H](Cc2ccccc2)NC(=O)[C@H](CCCCNC(=O)CCCCCNC(=O)CCCCC[N+]2=C(/C=C/C=C/C=C3/N(C)c4ccc5ccccc5c4C3(C)C)C(C)(C)c3c2ccc2ccccc32)N(C)C(=O)[C@H]2CCCN2C(=O)[C@H](Cc2ccccc2)NC(=O)[C@H](C)NC1=O` [OM1231, cyc(FRGDLAFp(NMe)K(Ahx-Cy5.5))], the “recognition of cellular integrin αvβ3” value in data set [10] is listed as “did not recognize cellular integrin αvβ3”. For the same compound, in data set [11] (HN cells, unlabeled OM_1204 at 10-fold molar excess 1 h prior to OM_1231 (10 μM)), the “fluorescence signal intensity after blocking” value was “strong reduction in fluorescence signal intensity”. The “fluorescence signal intensity on cells” value in [11] is listed as “strong fluorescence signal intensity on cell membranes”. Further, the IC50 in data set [6] was 0.234 ± 0.033 µM; in data set [7], 0.027 ± 0.002 µM.

Take “cyc(R-betaAla-D-f-K(Ahx-Cy5.5)) [OM1224]”: the “fluorescence signal intensity on cells” value in data set [11] is “did not result in fluorescence signal intensity”.
